Reference: patent US20250019377A1 (JACOBIO PHARMACEUTICALS CO., LTD, priority 2021, published 2025)
pIC50: −log10 of the molar value.

Columns and labels:
[1] = tested on: AGS cells (K-Ras G12D); assay: 2D cell growth inhibition assay, AGS; assay type: cell-based; conditions: Homo sapiens, 144 h, 6 days, absolute IC50
Description: (§1) The cell growth inhibition activity of each of compounds was tested by performing cell growth inhibition assays on a variety of K-Ras mutant and K-Ras WT cell lines indicated in Table 25.
(§2) Each of cells in culture medium was plated in TC-treated 96-well plates at a density indicated in Table 25 and incubated in a cell incubator overnight. The next day, each of compounds was diluted in culture medium and added to the plates. After 6 days incubation in cell incubator, the cell viability was detected by CellTiter-Glo® Cell Viability Assay kit (Promega).

[2] = tested on: SW620 cells (K-Ras G12V); assay: 2D cell growth inhibition assay, SW620; assay type: cell-based; conditions: Homo sapiens, SW-620, 144 h, 6 days, absolute IC50
Description: as §1, §2

[3] = tested on: p-ERK in SW620 cells (K-Ras G12V); assay: Phospho-ERK1/2(THR202/TYR204) HTRF assay, SW620; assay type: cell-based; conditions: Homo sapiens, SW-620, 2 h, 2 hours incubation
Description: (§3) p-ERK (MAPK pathway) inhibition activity of each of compounds in a variety of K-Ras mutant and K-Ras WT cell lines indicated in Table 23 was evaluated.
(§4) Each of cells in culture medium was seeded in 96-well plates at density indicated in Table 23 and then put in a cell incubator to incubate overnight. The next day, the culture medium was removed and the compound diluted in assay medium was added in each well. […] 10 μL of cell lysates from the 96-well plates were transferred to a 384-well plate (Greiner) containing 2.5 μL/well HTRF® pre-mixed antibodies (Cisbio 64AERPEH). The plate was incubated 4 hours at 25° C. and then read HTRF signals on Tecan Spark multimode microplate reader. The data were analyzed using a 4-parameter logistic model to calculate IC50 values.

[4] = tested on: AsPC-1 cells (K-Ras G12D); assay: 2D cell growth inhibition assay, AsPC-1; assay type: cell-based; conditions: Homo sapiens, ASPC1, 144 h, AsPC-1, K-Ras G12D, 6 days, absolute IC50
Description: as §1, §2

[5] = tested on: p-ERK in AGS cells (K-Ras G12D); assay: Phospho-ERK1/2(THR202/TYR204) HTRF assay, AGS; assay type: cell-based; conditions: Homo sapiens, 2 h, 2 hours incubation
Description: as §3, §4

[6] = target: T1, K-Ras G12V (Homo sapiens, UniProt P01116, G12V); assay: SOS1 catalyzed nucleotide exchange assay (GDP form K-Ras), K-Ras G12V; conditions: read-out: K-Ras G12V GDP Biochemical Activity (IC50)
[7] = target: T1, K-Ras G12V; assay: biochemical

T1 sequence (P01116 1-169 isoform P01116-2 G12V): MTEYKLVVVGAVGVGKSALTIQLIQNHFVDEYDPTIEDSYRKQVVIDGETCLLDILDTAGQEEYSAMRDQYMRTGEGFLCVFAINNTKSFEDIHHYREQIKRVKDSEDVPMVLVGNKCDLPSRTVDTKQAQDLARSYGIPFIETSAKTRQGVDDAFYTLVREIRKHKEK

Structure (SMILES) | IC50 [1] | IC50 [2] | IC50 [3] | IC50 [4] | IC50 [5] | pIC50 [6] | pIC50 [7]
C#Cc1c(F)ccc2cc(O)cc(-c3ncc4c(N5CCCOCC5C)nc(OC[C@@]56CCCN5C[C@H](F)C6)nc4c3F)c12 (mixture of isomers) [Compound 16, 5-ethynyl-6-fluoro-4-(8-fluoro-2-(((2R,7aS)-2-fluorotetrahydro-1H-pyrrolizin-7a(5H)-yl)methoxy)-4-(3-methyl-1,4-oxazepan-4-yl)pyrido[4,3-d]pyrimidin-7-yl)naphthalen-2-ol trifluoroacetic acid] | 18.6 nM | 39.5 nM | 19.4 nM | 133 nM | 2.31 nM | 8.83 | 7.45
C#Cc1c(F)ccc2cc(O)cc(-c3ncc4c(N5CCCO[C@H]6C[C@H]65)nc(OC[C@@]56CCCN5C[C@H](F)C6)nc4c3F)c12 (single isomer, unassigned) [Compound 7A] | 175 nM | 846 nM |  | 1510 nM |  |  | 
C#Cc1c(F)ccc2cc(O)cc(-c3ncc4c(N5CCCO[C@@H]6C[C@@H]65)nc(OCC5(CN6CCOCC6)CC5)nc4c3F)c12 (single isomer, unassigned) [Compound 28B] | 2.23 nM | 6.63 nM | 3.36 nM | 18.2 nM | 1.33 nM | 8.64 | 7.53
C#Cc1c(F)ccc2cc(O)cc(-c3ncc4c(N5CCCOCC5)nc(OC[C@H]5CCCN5C)nc4c3F)c12 [Compound 2, (R)-5-ethynyl-6-fluoro-4-(8-fluoro-2-((1-methylpyrrolidin-2-yl)methoxy)-4-(1,4-oxazepan-4-yl)pyrido[4,3-d]pyrimidin-7-yl)naphthalen-2-ol] | 178 nM | 182 nM |  | 293 nM |  | 8.30 | 6.68
C#Cc1c(F)ccc2cc(O)cc(-c3ncc4c(N5CCCOCC5)nc(OCC56CCCN5CC(F)(F)C6)nc4c3F)c12 (stereo not shown) [Compound 9, 4-(2-((2,2-difluorotetrahydro-1H-pyrrolizin-7a(5H)-yl)methoxy)-8-fluoro-4-(1,4-oxazepan-4-yl)pyrido[4,3-d]pyrimidin-7-yl)-5-ethynyl-6-fluoronaphthalen-2-ol] | 186 nM | 171 nM | 15.4 nM | 586 nM | 66.2 nM |  | 
C#Cc1c(F)ccc2cc(O)cc(-c3ncc4c(N5CCOCC(=C)C5)nc(OC[C@@]56CCCN5C[C@H](F)C6)nc4c3F)c12 [Compound 24, 5-ethynyl-6-fluoro-4-(8-fluoro-2-(((2R,7aS)-2-fluorotetrahydro-1H-pyrrolizin-7a(5H)-yl)methoxy)-4-(6-methylene-1,4-oxazepan-4-yl)pyrido[4,3-d]pyrimidin-7-yl)naphthalen-2-ol] | 42.4 nM | 15.3 nM | 4.39 nM | 381 nM | 23.1 nM |  | 
C#Cc1c(F)c(F)cc2cc(O)cc(-c3ncc4c(N5CCCOCC5)nc(OC[C@@]56CCCN5C[C@H](F)C6)nc4c3F)c12 [Compound 29] | 8.22 nM | 4.62 nM | 7.74 nM | 53.6 nM | 3.3 nM |  | 
C#Cc1c(F)ccc2cc(O)cc(-c3ncc4c(N5CCOCC(=O)C5)nc(OC[C@@]56CCCN5C[C@H](F)C6)nc4c3F)c12 [Compound 30, 4-(7-(8-ethynyl-7-fluoro-3-hydroxynaphthalen-1-yl)-8-fluoro-2-(((2R,7aS)-2-fluorotetrahydro-1H-pyrrolizin-7a(5H)-yl)methoxy)pyrido[4,3-d]pyrimidin-4-yl)-1,4-oxazepan-6-one trifluoroacetic acid] |  |  | 3.97 nM |  | 2.04 nM |  | 
C#Cc1c(F)ccc2cc(O)cc(-c3ncc4c(N5CCOCCC56CC6)nc(OC[C@@]56CCCN5C[C@H](F)C6)nc4c3F)c12 [Compound 43, 5-ethynyl-6-fluoro-4-(8-fluoro-2-(((2R,7aS)-2-fluorotetrahydro-1H-pyrrolizin-7a(5H)-yl)methoxy)-4-(7-oxa-4-azaspiro[2.6]nonan-4-yl)pyrido[4,3-d]pyrimidin-7-yl)naphthalen-2-ol trifluoroacetic acid] | 248 nM | 76.3 nM | 21.8 nM | 1850 nM | 101 nM |  | 
C#Cc1c(F)ccc2cc(O)cc(-c3ncc4c(N5CCCOCC56CC6)nc(OC[C@@]56CCCN5C[C@H](F)C6)nc4c3F)c12 [Compound 50, 5-ethynyl-6-fluoro-4-(8-fluoro-2-(((2R,7aS)-2-fluorotetrahydro-1H-pyrrolizin-7a(5H)-yl)methoxy)-4-(8-oxa-4-azaspiro[2.6]nonan-4-yl)pyrido[4,3-d]pyrimidin-7-yl)naphthalen-2-ol trifluoroacetic acid] |  |  | 121 nM |  |  |  | 
C#Cc1cccc2cc(O)cc(-c3ncc4c(N5CCCOCC5)nc(OC[C@@]56CCCN5C[C@H](F)C6)nc4c3F)c12 [Compound 82] | 15.5 nM | 116 nM | 13.8 nM | 226 nM | 2.93 nM |  | 
C#Cc1c(F)ccc2cc(O)cc(-c3ncc4c(N5CCOCC(COC)C5)nc(OC[C@@]56CCCN5C[C@H](F)C6)nc4c3F)c12 (stereo partly shown) [Compound 87] | 3.41 nM | 27.2 nM | 5.98 nM | 32.8 nM | 1.5 nM |  | 
C#Cc1c(F)ccc2cc(O)cc(-c3ncc4c(N5CC6COCC5C6)nc(OC[C@@]56CCCN5C[C@H](F)C6)nc4c3F)c12 (stereo partly drawn) [Compound 94, 4-(4-(3-oxa-6-azabicyclo[3.2.1]octan-6-yl)-8-fluoro-2-(((2R,7aS)-2-fluorotetrahydro-1H-pyrrolizin-7a(5H)-yl)methoxy)pyrido [4,3-d]pyrimidin-7-yl)-5-ethynyl-6-fluoro naphthalen-2-ol] |  |  | 275 nM |  |  |  | 
C#Cc1c(F)ccc2cc(O)cc(-c3ncc4c(N5CCOCC(C)(C)C5)nc(OC[C@@]56CCCN5C[C@H](F)C6)nc4c3F)c12 [Compound 102, 4-(4-(6,6-dimethyl-1,4-oxazepan-4-yl)-8-fluoro-2-(((2R,7aS)-2-fluorotetrahydro-1H-pyrrolizin-7a(5H)-yl)methoxy)pyrido[4,3-d]pyrimidin-7-yl)-5-ethynyl-6-fluoro-naphthalen-2-ol] |  |  | 47.1 nM |  | 192 nM |  | 
C#Cc1c(F)ccc2cc(O)cc(-c3ncc4c(N5CCOCC6(CC6)C5)nc(OC[C@@]56CCCN5C[C@H](F)C6)nc4c3F)c12 [Compound 103, 5-ethynyl-6-fluoro-4-(8-fluoro-2-(((2R,7aS)-2-fluorotetrahydro-1H-pyrrolizin-7a(5H)-yl)methoxy)-4-(5-oxa-8-azaspiro[2.6]nonan-8-yl)pyrido[4,3-d]pyrimidin-7-yl) naphthalen-2-ol] |  | 109 nM | 187 nM |  |  |  | 
C#Cc1c(F)ccc2cc(O)cc(-c3ncc4c(N5CC(OC)COCC5C)nc(OC[C@@]56CCCN5C[C@H](F)C6)nc4c3F)c12 (stereo partly drawn) [Compound 106, 5-ethynyl-6-fluoro-4-(8-fluoro-2-(((2R,7aS)-2-fluorotetrahydro-1H-pyrrolizin-7a(5H)-yl)methoxy)-4-(6-methoxy-3-methyl-1,4-oxazepan-4-yl)pyrido[4,3-d]pyrimidin-7-yl)naphthalen-2-ol] | 98.1 nM | 66.4 nM | 21.5 nM | 681 nM | 39.4 nM |  | 
C#Cc1c(F)ccc2c(F)c(O)cc(-c3ncc4c(N5CCCOCC5)nc(OC[C@@]56CCCN5C[C@H](F)C6)nc4c3F)c12 [Compound 107, 5-ethynyl-1,6-difluoro-4-(8-fluoro-2-(((2R,7aS)-2-fluorotetrahydro-1H-pyrrolizin-7a(5H)-yl)methoxy)-4-(1,4-oxazepan-4-yl)pyrido[4,3-d]pyrimidin-7-yl)naphthalen-2-ol] | 504 nM | 185 nM | 40.2 nM | 885 nM | 66.1 nM |  | 
C#Cc1c(F)ccc2cc(O)cc(-c3ncc4c(N5[C@H]6COC[C@H](C)[C@@H]5C6)nc(OC[C@@]56CCCN5C[C@H](F)C6)nc4c3F)c12 [Compound 110, 5-ethynyl-6-fluoro-4-(8-fluoro-2-(((2R,7aS)-2-fluorotetrahydro-1H-pyrrolizin-7a(5H)-yl)methoxy)-4-((1R,5R,6S)-5-methyl-3-oxa-7-azabicyclo[4.1.1]octan-7-yl)pyrido [4,3-d]pyrimidin-7-yl)naphthalen-2-ol] |  | 81 nM | 62.2 nM |  | 44.3 nM | 8.18 | < 6.00
C#Cc1c(F)ccc2cccc(-c3ncc4c(N5CCCOC6CC65)nc(OC[C@@]56CCCN5C[C@H](F)C6)nc4c3F)c12 (stereo partly drawn) [Compound 115, 6-(7-(8-ethynyl-7-fluoronaphthalen-1-yl)-8-fluoro-2-(((2R,7aS)-2-fluorotetrahydro-1H-pyrrolizin-7a(5H)-yl)methoxy)pyrido [4,3-d]pyrimidin-4-yl)-2-oxa-6-azabicyclo [5.1.0]octane] | 133 nM | 163 nM | 27.9 nM | 237 nM | 46.5 nM |  | 
Oc1cc(-c2ncc3c(N4CCCOCC4)nc(OC[C@@]45CCCN4C[C@H](F)C5)nc3c2F)c2ccccc2c1 [Compound 118, 4-(8-fluoro-2-(((2R,7aS)-2-fluorotetrahydro-1H-pyrrolizin-7a(5H)-yl)methoxy)-4-(1,4-oxazepan-4-yl)pyrido[4,3-d]pyrimidin-7-yl)naphthalen-2-ol] | 184 nM | 343 nM | 110 nM | 1420 nM | 113 nM |  | 
